The values that follow come from patent US11549123B2, “Plant EPSP synthases and methods of use” (PIONEER HI-BRED INTERNATIONAL, INC., priority 2015, dated 2023).

Structures are written as SMILES. Substitutions are numbered along the chain they refer to.

What all share (format): biochemical
The target of assay [1] is T1, Zea mays EPSPS variant S-N at positions 103-107 (Zea mays, UniProt O24566, P106N/T102S).
T1 sequence (O24566 with tags, fused parts or gaps T102S/P106N): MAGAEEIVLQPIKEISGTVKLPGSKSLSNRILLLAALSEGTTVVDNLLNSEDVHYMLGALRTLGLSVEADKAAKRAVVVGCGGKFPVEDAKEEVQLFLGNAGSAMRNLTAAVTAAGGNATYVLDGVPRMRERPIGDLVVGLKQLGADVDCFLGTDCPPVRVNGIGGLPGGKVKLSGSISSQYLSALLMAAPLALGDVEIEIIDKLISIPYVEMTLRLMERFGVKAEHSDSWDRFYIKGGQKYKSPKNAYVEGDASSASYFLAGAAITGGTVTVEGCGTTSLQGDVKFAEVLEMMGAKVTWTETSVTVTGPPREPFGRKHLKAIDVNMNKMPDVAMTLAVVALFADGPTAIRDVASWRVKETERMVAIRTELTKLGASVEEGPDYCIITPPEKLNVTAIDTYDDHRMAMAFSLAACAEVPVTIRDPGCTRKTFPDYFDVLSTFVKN
Briefly: EPSPS substrate saturation kinetics, maize variant 103S 107N. On the procedure: (§1) EPSPS activity was determined by quantifying the phosphate generated from the EPSPS reaction. Release of inorganic phosphate was coupled to reaction with 2-amino-6-mercapto-7-methylpurine ribonucleoside, catalyzed by purine-nucleoside phosphorylase (M R Webb, Proc. Natl. Acad. Sci. 89:4884-4887, 1992). The absorbance change that occurs was monitored at 360 nm, where the extinction is 11,200 M^−1 cm^−1, with a Spectramax plate reader (Molecular Devices). To determine kinetic parameters, the varied substrate was present at seven concentrations (the eighth being the blank, containing no substrate) ranging from 4 to 400 uM and the unvaried substrate present at saturation. Six microliters of 50-fold concentrated stock solutions of the varied substrate were placed in the wells of the 96-well assay plate and reactions were started with the addition of a mixture containing 25 mM Hepes, pH 7, 100 mM KCl, 0.3 mM 2-amino-6-mercapto-7-methylpurine ribonucleosde, 1 uM (1 unit/ml) purine-nucleoside phosphorylase (Sigma N8264) and 200 uM of the non-varied substrate. Reactions were monitored with a Spectramax plate reader. The Michaelis-Menten kinetics protocol of the Spectramax software was customized for the substrate concentrations used. The software returns values of KM and Vmax using the Lineweaver-Burke transformation of the Michaelis-Menten equation. To determine kcat, Vmax (uM/min) was divided by the enzyme concentration (uM). […] KI was then calculated from the following form of the Michaelis-Menten equation for competitive inhibition: KI=KM[I]/(KM app−KM) KM approximates the dissociation constant of the enzyme-substrate complex while kcat is the rate of conversion of substrate to product when the substrate concentration is saturating. kcat/KM is a widely accepted parameter for catalytic efficiency when substrate concentration is low (˜KM). […] The parameter kcat/KM×KI is used to quantify both catalytic efficiency and insensitivity and thus the overall fitness of the enzyme. […]

Assay [2] has as its target T2, Zea mays EPSPS variant V-G at positions 103-107 (Zea mays, UniProt O24566, P106G/T102V).
T2 sequence (O24566 with tags, fused parts or gaps T102V/P106G): T1 sequence (O24566 with tags, fused parts or gaps T102S/P106N) with S103V, N107G
Put plainly: EPSPS substrate saturation kinetics, maize variant 103V 107G. The method, then:
as §1

In assay [3] the target is T3, Zea mays EPSPS variant WT-FS-E (102A 302S 391G 438R) (Zea mays, UniProt O24566, E301S/E390G/G101A/V437R).
T3 sequence (O24566 with tags, fused parts or gaps G101A/E301S/E390G/V437R): T1 sequence (O24566 with tags, fused parts or gaps T102S/P106N) with G102A, S103T, N107P, E302S, E391G, V438R
Briefly: EPSPS substrate saturation kinetics, WT-FS-E. On the procedure:
as §1, with “reader.” for “reader. The Michaelis-Menten kinetics protocol of the Spectramax software was customized for the substrate concentrations used. The software returns values of KM and Vmax using the Lineweaver-Burke transformation of the Michaelis-Menten equation. To determine kcat, Vmax (uM/min) was divided by the enzyme concentration (uM).”
The vector DNA of the library was transformed into the BL21(DE3) Tuner AroA knockout strain and the cells were plated onto M9 medium containing 50 mM glyphosate. A small aliquot of the transformed cells was plated on LB, by which it was determined that 1.1×10^8 colony forming units, or 20% of the theoretical library size, were plated and screened. […]

[4] abbreviates: PEP as substrate, glyphosate as inhibitor.

The Ki is a measure of affinity in units of concentration, obtained from inhibition or displacement. Higher therefore signals weaker binding.

Regarding `C=C(OP(=O)(O)O)C(=O)O` [PEP, phosphoenolpyruvate], the values for the kcat in assay [1] (PEP varied) and in assay [2] (PEP varied) were 161 and 324, respectively. In addition, in assay [3] (compared to G102A alone), the “improvement in KM for PEP” value stood at 2 fold.
Turning to `O=C(O)CNCP(=O)(O)O` [glyphosate, N-phosphonomethylglycine], the Ki in assay [1] was 244 µM; in assay [2], 480 µM; in assay [3] it was 1150 µM. Moreover, the “(kcat/KM)*KI” value in assay [1] (setting [4]) was determined as 1033; in assay [2] (setting [4]), 1170; in assay [3] (setting [4]) it was 2763.
